Consider one molecule from patent US20040033210A1, “Enhancement of antibody-cytokine fusion protein mediated immune responses by co-administration with prostaglandin inhibitor” (EMD Lexigen Research Center Corp., priority 1998, published 2004).

This assay relates to LLC-EpCAM subcutaneous tumors. Briefly: Combination therapy of LLC-Ep subcutaneous tumors in C57BL/6 mice with indomethacin (Example 5), tumor volume. Type of assay: in vivo. Particulars: after treatment for 22 days; fusion protein 25 μg/mouse i.v., 5 daily injections; indomethacin 20 μg/mL in drinking water throughout. As to the method: FIG. 5 is a line graph depicting the effect on subcutaneous tumors of an antibody-cytokine fusion protein administered either alone or in combination with indomethacin. The size of LLC-EpCAM subcutaneous tumors were monitored in mice treated with phosphate buffered saline (closed diamonds), a huKS-huγ1-huIL2 fusion protein (closed squares), indomethocin (closed triangles), and a combination of the huKS-huγ1-huIL2 fusion protein and indomethocin (crosses).
Female C57lB6 mice were injected subcutaneously in the mid-back with LLC-Ep cells (5×10^5 per mouse) grown in cell culture. After about two weeks, animals with palpable tumors in the range of 150-400 mm^3 were divided into four groups, with an equal distribution of tumor sizes between the groups. […] Tumor growth was monitored by volumetric measurements until animals in the control group became moribund and were euthanized. Tumor volumes were measured with calipers and calculated as V=4 π/3 (0.5L×0.5W×0.5H), where L is the length, W is the width, and H is the height of the tumor. […]
When the tumors reached 100-200 mm^3 in size (about 7 to 14 days), the mice were randomized into four groups, 5 mice per group. […] Tumor volumes were measured as described in Example 3. […]

Take `COc1ccc2c(c1)c(CC(=O)O)c(C)n2C(=O)c1ccc(Cl)cc1` [indomethacin]: the T/C ratio was determined as 0.60.
